As usually defined, the EC50 is the concentration that produces a half-maximal response. The low end stands for an effect from little substance, the high end for a need for much substance.

Among the data in patent publication US20260022096A1, “NOVEL SULFONAMIDES AND THEIR USE AS NEUROPROTECTIVE AND/OR NEURORESTORATIVE AGENTS” (GENECODE, priority 2022, published 2026) are EC50 values, retold here.

Some results are limits rather than exact numbers.

For this assay, the target named is T1, GFRα1-RET (Homo sapiens, UniProt P56159).
T1 construct: expressed in transfected cells; host or cells: MG87 murine fibroblasts, stably transfected
T1 sequence (P56159 25-429 limits assumed): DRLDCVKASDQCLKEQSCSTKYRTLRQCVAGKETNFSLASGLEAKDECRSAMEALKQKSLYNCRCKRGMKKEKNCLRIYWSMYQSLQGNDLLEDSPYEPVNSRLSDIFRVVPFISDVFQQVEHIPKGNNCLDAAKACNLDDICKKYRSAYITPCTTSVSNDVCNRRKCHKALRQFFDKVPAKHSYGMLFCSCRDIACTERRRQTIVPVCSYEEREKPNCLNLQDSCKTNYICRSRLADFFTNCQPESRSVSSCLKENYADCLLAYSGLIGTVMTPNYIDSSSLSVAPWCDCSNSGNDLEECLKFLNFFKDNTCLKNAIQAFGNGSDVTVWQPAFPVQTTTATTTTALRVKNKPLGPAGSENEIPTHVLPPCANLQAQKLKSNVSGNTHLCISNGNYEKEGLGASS
Nature of the assay: Elk1 reporter-gene (luciferase) assay in cells expressing GFRα1-RET. Type of assay: cell-based. Conditions: MG87 murine fibroblasts stably transfected with PathDetect Elk-1, GFRα1 and RET, 6 concentrations, agonist/activator activity. The protocol:
For ECso determination, a dose-response test was performed using 6 concentrations of each tested compound. Dose-response curves were fitted using the sigmoidal dose-response (variable slope) analysis in GraphPad Prism program (Graph Pad Inc) and ECso of agonist/activator activity was calculated. Dose-response experiments were all performed in duplicate, two times independently.
Take `COc1ccc(S(=O)(=O)N2CCN(CC(O)c3ccc(F)cc3)CC2)cc1N1C2CCC1CN(C(=O)c1ccc(F)cc1Cl)C2` (racemic) [compound 128, (2-chloro-4-fluoro-phenyl)-[(1S,5R)-8-[5-[4-[(2RS)-2-(4-fluorophenyl)-2-hydroxy-ethyl]piperazin-1-yl]sulfonyl-2-methoxy-phenyl]-3,8-diazabicyclo[3.2.1]octan-3-yl]methanone]: the EC50 is under 1 µM. For `COc1ccc(S(=O)(=O)NC(C)(C)C)cc1N1[C@@H]2CC[C@H]1CN(C(=O)c1ccc(F)cc1Cl)C2` [compound 002] the value was 1 to 10 µM; for `CCCN(C)S(=O)(=O)c1ccc(OC)c(N2[C@@H]3CC[C@H]2CN(C(=O)c2ccc(F)cc2Cl)C3)c1` [compound 003], 1 to 10 µM. The value for `COc1ccc(S(=O)(=O)N2CCCC2)cc1N1[C@@H]2CC[C@H]1CN(C(=O)c1ccc(F)cc1Cl)C2` [compound 004, (2-chloro-4-fluoro-phenyl)-[(1S,5R)-8-(2-methoxy-5-pyrrolidin-1-ylsulfonyl-phenyl)-3,8-diazabicyclo[3.2.1]octan-3-yl]methanone] was 1 to 10 µM. With `COc1ccc(S(=O)(=O)N(C)CC2CC2)cc1N1[C@@H]2CC[C@H]1CN(C(=O)c1ccc(F)cc1Cl)C2` [compound 005, 3-[(1S,5R)-3-(2-chloro-4-fluoro-benzoyl)-3,8-diazabicyclo[3.2.1]octan-8-yl]-N-(cyclopropylmethyl)-4-methoxy-N-methyl-benzenesulfonamide], the EC50 was under 1 µM. For `COc1ccc(S(=O)(=O)N2CCC(F)CC2)cc1N1[C@@H]2CC[C@H]1CN(C(=O)c1ccc(F)cc1Cl)C2` [compound 006] the value was 1 to 10 µM; for `COc1ccc(S(=O)(=O)N2CCC(C(F)(F)F)CC2)cc1N1[C@@H]2CC[C@H]1CN(C(=O)c1ccc(F)cc1Cl)C2` [compound 007, (2-chloro-4-fluoro-phenyl)-[(1S,5R)-8-[2-methoxy-5-[[4-(trifluoromethyl)-1-piperidyl]sulfonyl]phenyl]-3,8-diazabicyclo[3.2.1]octan-3-yl]methanone], under 1 µM. `COc1ccc(S(=O)(=O)N2CCC(=Cc3ccccc3)CC2)cc1N1[C@@H]2CC[C@H]1CN(C(=O)c1ccc(F)cc1Cl)C2` [compound 008, [(1S,5R)-8-[5-[(4-benzylidene-1-piperidyl)sulfonyl]-2-methoxy-phenyl]-3,8-diazabicyclo[3.2.1]octan-3-yl]-(2-chloro-4-fluoro-phenyl)methanone] came in with an EC50 of under 1 µM. The value for `COc1ccc(S(=O)(=O)N2CCC(c3ccccc3)CC2)cc1N1[C@@H]2CC[C@H]1CN(C(=O)c1ccc(F)cc1Cl)C2` [compound 009, (2-chloro-4-fluoro-phenyl)-[(1S,5R)-8-[2-methoxy-5-[(4-phenyl-1-piperidyl)sulfonyl]phenyl]-3,8-diazabicyclo[3.2.1]octan-3-yl]methanone] was 1 to 10 µM. For `COc1ccc(S(=O)(=O)N2CCC(CCc3ccccc3)CC2)cc1N1[C@@H]2CC[C@H]1CN(C(=O)c1ccc(F)cc1Cl)C2` [compound 010, (2-chloro-4-fluoro-phenyl)-[(1S,5R)-8-[2-methoxy-5-[[4-(2-phenylethyl)-1-piperidyl]sulfonyl]phenyl]-3,8-diazabicyclo[3.2.1]octan-3-yl]methanone] the value was under 1 µM. For `COc1ccc(S(=O)(=O)N2CCN(c3ccccc3)CC2)cc1N1[C@@H]2CC[C@H]1CN(C(=O)c1ccc(F)cc1Cl)C2` [compound 012, (2-chloro-4-fluoro-phenyl)-[(1S,5R)-8-[2-methoxy-5-(4-phenylpiperazin-1-yl)sulfonyl-phenyl]-3,8-diazabicyclo[3.2.1]octan-3-yl]methanone] the value was under 1 µM; for `COc1ccc(S(=O)(=O)N2CCN(c3ncccn3)CC2)cc1N1[C@@H]2CC[C@H]1CN(C(=O)c1ccc(F)cc1Cl)C2` [compound 013], 1 to 10 µM; for `COc1ccc(S(=O)(=O)N2CCN(Cc3ccccc3)CC2)cc1N1[C@@H]2CC[C@H]1CN(C(=O)c1ccc(F)cc1Cl)C2` [compound 014], 1 to 10 µM. Take `COc1ccc(S(=O)(=O)N2C[C@H]3CCCC[C@H]3C2)cc1N1[C@@H]2CC[C@H]1CN(C(=O)c1ccc(F)cc1Cl)C2` [compound 015, [(1S,5R)-8-[5-[[(3aS,7aR)-1,3,3a,4,5,6,7,7a-octahydroisoindol-2-yl]sulfonyl]-2-methoxy-phenyl]-3,8-diazabicyclo[3.2.1]octan-3-yl]-(2-chloro-4-fluoro-phenyl)methanone]: the EC50 was under 1 µM. For `CCCN(C)S(=O)(=O)c1ccc(OC)c(N2[C@@H]3COC[C@H]2CN(C(=O)c2ccc(F)cc2C(F)(F)F)C3)c1` [compound 023, 3-[(1S,5R)-7-[4-fluoro-2-(trifluoromethyl)benzoyl]-3-oxa-7,9-diazabicyclo[3.3.1]nonan-9-yl]-4-methoxy-N-methyl-N-propyl-benzenesulfonamide] the value was 10 to 50 µM; for `CCCN(C)S(=O)(=O)c1ccc(OC)c(N2C3CCC2CN(C(=O)c2ccc(F)cc2C(F)(F)F)C3)c1` [compound 024, 3-[3-[4-fluoro-2-(trifluoromethyl)benzoyl]-3,8-diazabicyclo[3.2.1]octan-8-yl]-4-methoxy-N-methyl-N-propyl-benzenesulfonamide], 1 to 10 µM.

On to `CCCN(C)S(=O)(=O)c1ccc(F)c(N2[C@@H]3CC[C@H]2CN(C(=O)c2ccc(F)cc2Cl)C3)c1` [compound 026], for which the EC50 fell in the range of 1 to 10 µM. For `CCCN(C)S(=O)(=O)c1ccc(OC(F)(F)F)c(N2[C@@H]3CC[C@H]2CN(C(=O)c2ccc(F)cc2Cl)C3)c1` [compound 027, 3-[(1S,5R)-3-(2-chloro-4-fluoro-benzoyl)-3,8-diazabicyclo[3.2.1]octan-8-yl]-N-methyl-N-propyl-4-(trifluoromethoxy)benzene sulfonamide] the value was 1 to 10 µM. The compound `CCCN(C)S(=O)(=O)c1cccc(N2[C@@H]3CC[C@H]2CN(C(=O)c2ccc(F)cc2Cl)C3)c1` [compound 028, 3-[(1S,5R)-3-(2-chloro-4-fluoro-benzoyl)-3,8-diazabicyclo[3.2.1]octan-8-yl]-N-methyl-N-propyl-benzenesulfonamide] yielded an EC50 of 1 to 10 µM. The value for `CCCN(C)S(=O)(=O)c1ccc(OCC)c(N2[C@@H]3CC[C@H]2CN(C(=O)c2ccc(F)cc2Cl)C3)c1` [compound 029] was 1 to 10 µM. The value for `CCCN(C)S(=O)(=O)c1ccc(OC2CCC2)c(N2[C@@H]3CC[C@H]2CN(C(=O)c2ccc(F)cc2Cl)C3)c1` [compound 030, 3-[(1S,5R)-3-(2-chloro-4-fluoro-benzoyl)-3,8-diazabicyclo[3.2.1]octan-8-yl]-4-(cyclobutoxy)-N-methyl-N-propyl-benzenesulfonamide] was 1 to 10 µM; that for `CCCN(C)S(=O)(=O)c1ccc(OCOC)c(N2[C@@H]3CC[C@H]2CN(C(=O)c2ccc(F)cc2Cl)C3)c1` [compound 031, 3-[(1S,5R)-3-(2-chloro-4-fluoro-benzoyl)-3,8-diazabicyclo[3.2.1]octan-8-yl]-4-(methoxymethoxy)-N-methyl-N-propyl-benzenesulfonamide] was 1 to 10 µM; that for `CCN(CC)S(=O)(=O)c1cnc(Cl)c(N2[C@@H]3CC[C@H]2CN(C(=O)c2ccc(F)cc2Cl)C3)c1` [compound 032, 6-chloro-5-[(1S,5R)-3-(2-chloro-4-fluoro-benzoyl)-3,8-diazabicyclo[3.2.1]octan-8-yl]-N,N-diethyl-pyridine-3-sulfonamide] was 1 to 10 µM.
